Measurements taken from patent US5185330A, “Penam derivatives and salts thereof, and antibacterial agent comprising the same” (Toyama Chemical Co., Ltd., priority 1989, dated 1993).
Values after ≈ are worked out from the molar mass of the structure shown. Where two headings read alike, the source gives them in different places.

Key:
E. coli TK-3 = assay: Antibacterial activity (MIC, agar dilution) against E. coli TK-3*; assay type: cell-based; settings: Escherichia coli
Protocol: (§1) According to Chemotherapy, vol. 29, No. 1, pp. 76-79 (1981), bacterium was cultured in peptone broth manufactured by Eiken Kagaku K.K. at 37° C. for 20 hours to prepare a bacterial solution of 10^8 cells/ml, and one loopful of the bacterial solution was inoculated into Heart Infusion agar medium (manufactured by Eiken Kagaku K.K.) containing a drug, cultured at 37° C. for 20 hours, after which growth of bacterium was observed. The minimum concentration at which the growth of bacterium was prevented was indicated as MIC (μg/ml).
(§2) *means that β-lactamaseproducing bacteria.

S. marcescens W-8 = assay: Antibacterial activity (MIC, agar dilution) against S. marcescens W-8*; assay type: cell-based; settings: Serratia marcescens
Protocol: as §1, §2

[1] = W8, S. marcescens W-8* (β-lactamase-producing bacteria), Heart Infusion agar, 37° C., 20 hours, one loopful of 10^8 cells/ml, read-out: MIC
[2] = TK3, E. coli TK-3* (β-lactamase-producing bacteria), Heart Infusion agar, 37° C., 20 hours, one loopful of 10^8 cells/ml, read-out: MIC

Question: For `O=C(O)C(C(=O)N[C@@H]1C(=O)N2C[C@@](C(=O)O)(N3CCN(N=C4SCCS4)C3=O)S[C@H]12)c1ccccc1` (stereo partly shown) [compound 1], which MIC (E. coli TK-3; TK3, 20 h) is on record?
Answer: Its MIC is 0.39 µg/mL (≈ 0.707 µM).

Question: And the MIC (S. marcescens W-8; [1])?
Answer: The MIC was 0.1 µg/mL (≈ 0.181 µM).

Question: Which MIC (E. coli TK-3; [2]) does the source give for `O=C(O)C(C(=O)N[C@@H]1C(=O)N2C[C@@](C(=O)O)(N3CCN(N=Cc4ccco4)C3=O)S[C@H]12)c1ccccc1` (stereo partly shown) [compound 2] here?
Answer: Its MIC is 0.39 µg/mL (≈ 0.739 µM).

Question: What about the MIC (S. marcescens W-8; [1]) of the same compound?
Answer: The MIC was 0.39 µg/mL (≈ 0.739 µM).

Question: Which results are given for `CCN1CCN(C(=O)NN2CCN([C@]3(C(=O)O)CN4C(=O)[C@@H](NC(=O)C(C(=O)O)c5ccccc5)[C@H]4S3)C2=O)C(=O)C1=O` (stereo partly shown) [compound 3]?
Answer: MIC (E. coli TK-3; TK3, 20 h): 0.78 µg/mL (≈ 1.26 µM); MIC (S. marcescens W-8; W8, 20 h): 0.78 µg/mL (≈ 1.26 µM)

Question: What does the source list for `O=C(O)C(C(=O)N[C@@H]1C(=O)N2C[C@@](C(=O)O)(N3CCN(N=Cc4ccc(O)c(O)c4)C3=O)S[C@H]12)c1ccccc1` (stereo partly shown) [compound 4]?
Answer: MIC (E. coli TK-3; [2]): 6.25 µg/mL (≈ 11 µM); MIC (S. marcescens W-8; [1]): 6.25 µg/mL (≈ 11 µM)

Question: Which MIC (E. coli TK-3; TK3, 20 h) does the source give for `O=C(NN1CCN([C@]2(C(=O)O)CN3C(=O)[C@@H](NC(=O)C(C(=O)O)c4ccccc4)[C@H]3S2)C1=O)c1cc(=O)c(O)c[nH]1` (stereo partly shown) [compound 5] here?
Answer: The MIC was 3.13 µg/mL (≈ 5.34 µM).

Question: What about the MIC (S. marcescens W-8; W8, 20 h) of the same compound?
Answer: The MIC was 3.13 µg/mL (≈ 5.34 µM).

Question: For `CSC(=NN1CCN([C@]2(C(=O)O)CN3C(=O)[C@@H](NC(=O)C(C(=O)O)c4ccccc4)[C@H]3S2)C1=O)SC` (stereo partly shown) [compound 6], which MIC (E. coli TK-3; TK3, 20 h) is on record?
Answer: The MIC was 3.13 µg/mL (≈ 5.65 µM).

Question: What about the MIC (S. marcescens W-8; [1]) of the same compound?
Answer: The MIC was 1.56 µg/mL (≈ 2.82 µM).

Question: What does the source list for `O=CNN1CCN([C@]2(C(=O)O)CN3C(=O)[C@@H](NC(=O)C(C(=O)O)c4ccccc4)[C@H]3S2)C1=O` (stereo partly shown) [compound 7]?
Answer: MIC (E. coli TK-3; [2]): 12.5 µg/mL (≈ 26.2 µM); MIC (S. marcescens W-8; [1]): 6.25 µg/mL (≈ 13.1 µM)

Question: For `NC(=O)C(=O)NN1CCN([C@]2(C(=O)O)CN3C(=O)[C@@H](NC(=O)C(C(=O)O)c4ccccc4)[C@H]3S2)C1=O` (stereo partly shown) [compound 8], which MIC (E. coli TK-3; TK3, 20 h) is on record?
Answer: The MIC was 3.13 µg/mL (≈ 6.01 µM).

Question: What about the MIC (S. marcescens W-8; [1]) of the same compound?
Answer: The MIC was 1.56 µg/mL (≈ 3 µM).

Question: How did the MIC (E. coli TK-3; [2]) turn out when `O=C(O)C=NN1CCN([C@]2(C(=O)O)CN3C(=O)[C@@H](NC(=O)C(C(=O)O)c4ccccc4)[C@H]3S2)C1=O` (stereo partly shown) [compound 9] was run?
Answer: Its MIC is 25 µg/mL (≈ 49.5 µM).

Question: And the MIC (S. marcescens W-8; [1])?
Answer: The MIC was 12.5 µg/mL (≈ 24.7 µM).

Question: How did the MIC (E. coli TK-3; [2]) turn out when `C=CC=NN1CCN([C@]2(C(=O)O)CN3C(=O)[C@@H](NC(=O)C(C(=O)O)c4ccccc4)[C@H]3S2)C1=O` (stereo partly shown) [compound 10] was run?
Answer: Its MIC is 0.1 µg/mL (≈ 0.205 µM).

Question: What about the MIC (S. marcescens W-8; W8, 20 h) of the same compound?
Answer: The MIC was 0.05 µg/mL (≈ 0.103 µM).

Question: Which MIC (E. coli TK-3; [2]) does the source give for `O=C(O)C=CC=NN1CCN([C@]2(C(=O)O)CN3C(=O)[C@@H](NC(=O)C(C(=O)O)c4ccccc4)[C@H]3S2)C1=O` (stereo partly shown) [compound 11] here?
Answer: Its MIC is 0.2 µg/mL (≈ 0.376 µM).

Question: And the MIC (S. marcescens W-8; [1])?
Answer: Its MIC is 0.1 µg/mL (≈ 0.188 µM).

Question: Which results are given for `O=C(O)C(C(=O)N[C@@H]1C(=O)N2C[C@@](C(=O)O)(N3CCN(N=CC=CCS(=O)(=O)O)C3=O)S[C@H]12)c1ccccc1` (stereo partly shown) [compound 12]?
Answer: MIC (E. coli TK-3; [2]): 0.78 µg/mL (≈ 1.34 µM); MIC (S. marcescens W-8; [1]): 0.1 µg/mL (≈ 0.172 µM)

Question: Which results are given for `O=C(O)C(C(=O)N[C@@H]1C(=O)N2C[C@@](C(=O)O)(N3CCN(NC(=O)C(F)(F)F)C3=O)S[C@H]12)c1ccc(O)cc1` (stereo partly shown) [compound 13]?
Answer: MIC (E. coli TK-3; [2]): 12.5 µg/mL (≈ 22.3 µM); MIC (S. marcescens W-8; [1]): 3.13 µg/mL (≈ 5.57 µM)

Question: Which results are given for `CCN1CCN(C(=O)NN2CCN([C@]3(C(=O)O)CN4C(=O)[C@@H](NC(=O)C(C(=O)O)c5ccc(O)cc5)[C@H]4S3)C2=O)C(=O)C1=O` (stereo partly shown) [compound 14]?
Answer: MIC (E. coli TK-3; [2]): 3.13 µg/mL (≈ 4.94 µM); MIC (S. marcescens W-8; [1]): 3.13 µg/mL (≈ 4.94 µM)

Question: How did the MIC (E. coli TK-3; [2]) turn out when `O=C(O)CC(=O)NN1CCN([C@]2(C(=O)O)CN3C(=O)[C@@H](NC(=O)C(C(=O)O)c4ccc(O)cc4)[C@H]3S2)C1=O` (stereo partly shown) [compound 15] was run?
Answer: The MIC was 12.5 µg/mL (≈ 22.7 µM).

Question: And the MIC (S. marcescens W-8; [1])?
Answer: Its MIC is 12.5 µg/mL (≈ 22.7 µM).

Question: What does the source list for `O=C(O)C(C(=O)N[C@@H]1C(=O)N2C[C@@](C(=O)O)(N3CCN(NS(=O)(=O)O)C3=O)S[C@H]12)c1ccc(O)cc1` (stereo partly shown) [compound 16]?
Answer: MIC (E. coli TK-3; [2]): 12.5 µg/mL (≈ 22.9 µM); MIC (S. marcescens W-8; [1]): 12.5 µg/mL (≈ 22.9 µM)

Question: What does the source list for `CNC(=O)NN1CCN([C@]2(C(=O)O)CN3C(=O)[C@@H](NC(=O)C(C(=O)O)c4ccc(O)cc4)[C@H]3S2)C1=O` (stereo partly shown) [compound 17]?
Answer: MIC (E. coli TK-3; [2]): 1.56 µg/mL (≈ 2.99 µM); MIC (S. marcescens W-8; [1]): 1.56 µg/mL (≈ 2.99 µM)

Question: What does the source list for `C=CC=NN1CCN([C@]2(C(=O)O)CN3C(=O)[C@@H](NC(=O)C(C(=O)O)c4ccc(O)cc4)[C@H]3S2)C1=O` (stereo partly shown) [compound 18]?
Answer: MIC (E. coli TK-3; TK3, 20 h): ≤ 0.05 µg/mL; MIC (S. marcescens W-8; [1]): 0.1 µg/mL (≈ 0.199 µM)

Question: What does the source list for `C#CC=NN1CCN([C@]2(C(=O)O)CN3C(=O)[C@@H](NC(=O)C(C(=O)O)c4ccc(O)cc4)[C@H]3S2)C1=O` (stereo partly shown) [compound 19]?
Answer: MIC (E. coli TK-3; TK3, 20 h): ≤ 0.05 µg/mL; MIC (S. marcescens W-8; W8, 20 h): ≤ 0.05 µg/mL

Question: Which MIC (E. coli TK-3; [2]) does the source give for `CC(=O)Oc1cc(Cl)c(C(C(=O)N[C@@H]2C(=O)N3C[C@@](C(=O)O)(N4CCN(NC(N)=O)C4=O)S[C@H]23)S(=O)(=O)O)cc1OC(C)=O` (stereo partly shown) [compound 20] here?
Answer: Its MIC is 0.78 µg/mL (≈ 1.15 µM).

Question: What about the MIC (S. marcescens W-8; [1]) of the same compound?
Answer: Its MIC is 0.78 µg/mL (≈ 1.15 µM).

Question: Which MIC (E. coli TK-3; [2]) does the source give for `NC(=O)NN1CCN([C@]2(C(=O)O)CN3C(=O)[C@@H](NC(=O)C(c4cc(O)c(O)cc4Cl)S(=O)(=O)O)[C@H]3S2)C1=O` (stereo partly shown) [compound 21] here?
Answer: Its MIC is 0.39 µg/mL (≈ 0.655 µM).

Question: And the MIC (S. marcescens W-8; [1])?
Answer: Its MIC is 0.39 µg/mL (≈ 0.655 µM).

Question: Which results are given for `CC(=O)Oc1cc(C(C(=O)N[C@@H]2C(=O)N3C[C@@](C(=O)O)(N4CCN(NC(N)=O)C4=O)S[C@H]23)S(=O)(=O)O)cc(Cl)c1OC(C)=O` (stereo partly shown) [compound 22]?
Answer: MIC (E. coli TK-3; [2]): 6.25 µg/mL (≈ 9.2 µM); MIC (S. marcescens W-8; [1]): 12.5 µg/mL (≈ 18.4 µM)

Question: `O=C(O)C(C(=O)N[C@@H]1C(=O)N2C[C@@](C(=O)O)(N3CCN(N=C4SCCS4)C3=O)S[C@H]12)c1ccc(O)c(O)c1` (stereo partly shown) [compound 23] was tested. Which MIC (E. coli TK-3; [2]) did it give?
Answer: The MIC was 3.13 µg/mL (≈ 5.36 µM).

Question: And the MIC (S. marcescens W-8; [1])?
Answer: Its MIC is 3.13 µg/mL (≈ 5.36 µM).
